pIC50: −log10 of the molar value.
Biological target: T1, human TLR7 (Homo sapiens, UniProt Q9NYK1)
T1 construct: host or cells: HEK293 (HEK-Blue hTLR7)
T1 sequence (Q9NYK1 27-1049): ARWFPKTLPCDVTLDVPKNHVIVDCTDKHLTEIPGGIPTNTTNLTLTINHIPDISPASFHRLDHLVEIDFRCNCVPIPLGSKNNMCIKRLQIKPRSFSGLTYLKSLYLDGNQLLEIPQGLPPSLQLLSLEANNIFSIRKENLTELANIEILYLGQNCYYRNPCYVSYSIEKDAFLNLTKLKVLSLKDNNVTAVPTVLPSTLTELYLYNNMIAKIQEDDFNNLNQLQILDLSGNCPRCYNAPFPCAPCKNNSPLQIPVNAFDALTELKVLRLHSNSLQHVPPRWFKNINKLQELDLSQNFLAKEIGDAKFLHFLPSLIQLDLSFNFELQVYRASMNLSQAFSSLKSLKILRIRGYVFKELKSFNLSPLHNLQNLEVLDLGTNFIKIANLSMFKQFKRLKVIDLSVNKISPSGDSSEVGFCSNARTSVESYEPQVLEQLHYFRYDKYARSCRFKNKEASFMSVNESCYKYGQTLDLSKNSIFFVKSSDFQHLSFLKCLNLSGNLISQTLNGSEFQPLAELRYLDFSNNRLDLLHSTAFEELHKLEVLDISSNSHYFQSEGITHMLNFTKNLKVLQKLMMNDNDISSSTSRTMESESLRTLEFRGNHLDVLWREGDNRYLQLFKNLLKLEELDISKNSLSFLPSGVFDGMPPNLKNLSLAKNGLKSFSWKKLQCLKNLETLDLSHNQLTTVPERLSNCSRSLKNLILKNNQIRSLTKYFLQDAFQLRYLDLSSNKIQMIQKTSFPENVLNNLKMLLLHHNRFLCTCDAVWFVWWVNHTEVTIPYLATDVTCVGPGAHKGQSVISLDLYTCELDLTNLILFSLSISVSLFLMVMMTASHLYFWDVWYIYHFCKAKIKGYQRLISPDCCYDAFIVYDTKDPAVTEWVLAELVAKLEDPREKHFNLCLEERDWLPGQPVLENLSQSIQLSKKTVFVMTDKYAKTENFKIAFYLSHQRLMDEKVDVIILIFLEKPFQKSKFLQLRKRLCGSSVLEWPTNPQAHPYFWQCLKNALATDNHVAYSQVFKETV
Assay: HEK293-Blue-hTLR-7 cells assay (SEAP reporter, R848 stimulation)
Assay type: cell-based
Details: HEK293-Blue-hTLR7 cells, R848, 20 hrs; read-out: HEK/hTLR7 IC50
Description: HEK293-Blue-hTLR-7 Cells Assay:
A stable HEK293-Blue-hTLR-7 cell line was purchased from InvivoGen (Cat. #: hkb-ht1r7, San Diego, Calif., USA). These cells were originally designed for studying the stimulation of human TLR7 by monitoring the activation of NF-κB. A SEAP (secreted embryonic alkaline phosphatase) reporter gene was placed under the control of the IFN-β minimal promoter fused to five NF-κB and AP-1-binding sites. The SEAP was induced by activating NF-κB and AP-1 via stimulating HEK-Blue hTLR7 cells with TLR7 ligands. Therefore the reporter expression was declined by TLR7 antagonist under the stimulation of a ligand, such as R848 (Resiquimod), for incubation of 20 hrs. The cell culture supernatant SEAP reporter activity was determined using QUANTI-Blue™ kit (Cat. #: rep-qb1, Invivogen, San Diego, Ca, USA) at a wavelength of 640 nm, a detection medium that turns purple or blue in the presence of alkaline phosphatase.
HEK293-Blue-hTLR7 cells were incubated at a density of […] cells/mL in a volume of 170 μL in a 96-well plate in Dulbecco's Modified Eagle's medium (DMEM) containing 4.5 g/L glucose, 50 U/mL penicillin, […], […], 2 mM L-glutamine, 10% (v/v) heat-inactivated fetal bovine serum with addition of 20 μL test compound in a serial dilution in the presence of final DMSO at 1% and 10 μL of 20 uM R848 in above DMEM, perform incubation under 37° C. in a CO2 incubator for 20 hrs. Then 20 μL of the supernatant from each well was incubated with 180 μL Quanti-blue substrate solution at 37° C. for 2 hrs and the absorbance was read at 620˜655 nm using a spectrophotometer. The signaling pathway that TLR7 activation leads to downstream NF-κB activation has been widely accepted, and therefore similar reporter assay was modified for evaluating TLR7 antagonist.

SMILES | pIC50
C[C@@H]1CN(c2ccc(C#N)c3nccnc23)C[C@H](CN2CCN(c3nccc(N4CC(N)C4)n3)CC2)O1 [Example 118, 8-[(2S,6R)-2-[[4-[4-(3-aminoazetidin-1-yl)pyrimidin-2-yl]piperazin-1-yl]methyl]-6-methyl-morpholin-4-yl]quinoxaline-5-carbonitrile] | 8.40
CO[C@@H]1CN(c2cc(C)nc(N3CCN(C[C@H]4CN(c5ccc(C#N)c6nccnc56)C[C@@H](C)O4)CC3)n2)C[C@H]1N [Example 121, 8-[(2S,6R)-2-[[4-[4-[(3R,4R)-3-amino-4-methoxy-pyrrolidin-1-yl]-6-methyl-pyrimidin-2-yl]piperazin-1-yl]methyl]-6-methyl-morpholin-4-yl]quinoxaline-5-carbonitrile] | 8.10
Cc1cc(N2C[C@@H](N)[C@](C)(O)C2)nc(N2CCN(C[C@H]3CN(c4ccc(C#N)c5nccnc45)C[C@@H](C)O3)CC2)n1 [Example 125, 8-[(2S,6R)-2-[[4-[4-[(3R,4R)-4-amino-3-hydroxy-3-methyl-pyrrolidin-1-yl]-6-methyl-pyrimidin-2-yl]piperazin-1-yl]methyl]-6-methyl-morpholin-4-yl]quinoxaline-5-carbonitrile] | 7.33
Cc1ccc(N2C[C@H](CN3CCN(c4ccnc(N5CCN[C@H](C)C5)n4)CC3)O[C@H](C)C2)c2nccnc12 [Example 128, (2R,6S)-2-methyl-6-[[4-[2-[(3R)-3-methylpiperazin-1-yl]pyrimidin-4-yl]piperazin-1-yl]methyl]-4-(8-methylquinoxalin-5-yl)morpholine] | 7.52
Cc1ccc(N2C[C@H](CN3CCN(c4ccnc(N5CC(N)C5)n4)CC3)O[C@H](C)C2)c2nccnc12 [Example 130, 1-[4-[4-[[(2S,6R)-6-methyl-4-(8-methylquinoxalin-5-yl)morpholin-2-yl]methyl]piperazin-1-yl]pyrimidin-2-yl]azetidin-3-amine] | 7.80
[2H]c1ccc2c(N3C[C@H](CN4CCN(c5nc(OC)cc(N6CC(C)(N)C6)n5)CC4)O[C@H](C)C3)ccc(C#N)c2n1 [Example 131, 5-[(2S,6R)-2-[[4-[4-(3-amino-3-methyl-azetidin-1-yl)-6-methoxy-pyrimidin-2-yl]piperazin-1-yl]methyl]-6-methyl-morpholin-4-yl]-2-deuterio-quinoline-8-carbonitrile] | 7.49
[2H]c1ccc2c(N3C[C@H](CN4CC(c5ccc(N6CC(C)(N)C6)nc5)C4)O[C@H](C)C3)ccc(C#N)c2n1 [Example 138, 5-[(2S,6R)-2-[[3-[6-(3-amino-3-methyl-azetidin-1-yl)-3-pyridyl]azetidin-1-yl]methyl]-6-methyl-morpholin-4-yl]-2-deuterio-quinoline-8-carbonitrile] | 8.30

More lines, in order of rising pIC50, values ahead:

pIC50 | SMILES
7.39 | [2H]c1ccc2c(N3C[C@H](CN4CCN(c5cnc(N6CC(C)(N)C6)cc5C)CC4)O[C@H](C)C3)ccc(C#N)c2n1 [Example 133, 5-[(2S,6R)-2-[[4-[6-(3-amino-3-methyl-azetidin-1-yl)-4-methyl-3-pyridyl]piperazin-1-yl]methyl]-6-methyl-morpholin-4-yl]-2-deuterio-quinoline-8-carbonitrile]
7.54 | Cc1ccc(N2C[C@H](CN3CCN(c4ccnc(N5CCN[C@@H](C)C5)n4)CC3)O[C@H](C)C2)c2nccnc12 [Example 127, (2R,6S)-2-methyl-6-[[4-[2-[(3S)-3-methylpiperazin-1-yl]pyrimidin-4-yl]piperazin-1-yl]methyl]-4-(8-methylquinoxalin-5-yl)morpholine]
7.68 | Cc1ccc(N2C[C@H](CN3CCN(c4ccnc(N5CC6(CNCCO6)C5)n4)CC3)O[C@H](C)C2)c2nccnc12 [Example 126, 2-[4-[4-[[(2S,6R)-6-methyl-4-(8-methylquinoxalin-5-yl)morpholin-2-yl]methyl]piperazin-1-yl]pyrimidin-2-yl]-5-oxa-2,8-diazaspiro[3.5]nonane]
7.70 | Cc1ccc(N2C[C@H](CN3CCN(c4ccnc(N5C[C@H]6NCCO[C@@H]6C5)n4)CC3)O[C@H](C)C2)c2nccnc12 [Example 129, (4aR,7aR)-6-[4-[4-[[(2S,6R)-6-methyl-4-(8-methylquinoxalin-5-yl)morpholin-2-yl]methyl]piperazin-1-yl]pyrimidin-2-yl]-3,4,4a,5,7,7a-hexahydro-2H-pyrrolo[3,4-b][1,4]oxazine]
7.70 | [2H]c1ccc2c(N3C[C@H](CN4CCN(c5ncc(N6CC(C)(N)C6)cc5C)CC4)O[C@H](C)C3)ccc(C#N)c2n1 [Example 139, 5-[(2S,6R)-2-[[4-[5-(3-amino-3-methyl-azetidin-1-yl)-3-methyl-2-pyridyl]piperazin-1-yl]methyl]-6-methyl-morpholin-4-yl]-2-deuterio-quinoline-8-carbonitrile]
7.72 | [2H]c1ccc2c(N3C[C@H](CN4CCN(c5ccc(N6CC(C)(N)C6)nc5C)CC4)O[C@H](C)C3)ccc(C#N)c2n1 [Example 137, 5-[(2S,6R)-2-[[4-[6-(3-amino-3-methyl-azetidin-1-yl)-2-methyl-3-pyridyl]piperazin-1-yl]methyl]-6-methyl-morpholin-4-yl]-2-deuterio-quinoline-8-carbonitrile]
7.80 | [2H]c1ccc2c(N3C[C@H](CN4CCN(c5nc(C)cc(N6CC(C)(N)C6)n5)CC4)O[C@H](C)C3)ccc(C#N)c2n1 [Example 135, 5-[(2S,6R)-2-[[4-[4-(3-amino-3-methyl-azetidin-1-yl)-6-methyl-pyrimidin-2-yl]piperazin-1-yl]methyl]-6-methyl-morpholin-4-yl]-2-deuterio-quinoline-8-carbonitrile]
8.15 | [2H]c1ccc2c(N3C[C@H](CN4CCN(c5nc(C)cc(N6CC(N)C6)n5)CC4)O[C@H](C)C3)ccc(C#N)c2n1 [Example 136, 5-[(2S,6R)-2-[[4-[4-(3-aminoazetidin-1-yl)-6-methyl-pyrimidin-2-yl]piperazin-1-yl]methyl]-6-methyl-morpholin-4-yl]-2-deuterio-quinoline-8-carbonitrile]
8.30 | CO[C@@H]1CN(c2cc(C)nc(N3CCN(C[C@H]4CN(c5ccc(C#N)c6nccnc56)C[C@@H](C)O4)CC3)n2)C[C@@H]1N [Example 120, 8-[(2S,6R)-2-[[4-[4-[(3S,4R)-3-amino-4-methoxy-pyrrolidin-1-yl]-6-methyl-pyrimidin-2-yl]piperazin-1-yl]methyl]-6-methyl-morpholin-4-yl]quinoxaline-5-carbonitrile]
8.30 | CO[C@H]1CN(c2cc(C)nc(N3CCN(C[C@H]4CN(c5ccc(C#N)c6nccnc56)C[C@@H](C)O4)CC3)n2)C[C@H]1N [Example 122, 8-[(2S,6R)-2-[[4-[4-[(3R,4S)-3-amino-4-methoxy-pyrrolidin-1-yl]-6-methyl-pyrimidin-2-yl]piperazin-1-yl]methyl]-6-methyl-morpholin-4-yl]quinoxaline-5-carbonitrile]
8.52 | Cc1cc(N2CC(N)C2)nc(N2CCN(C[C@H]3CN(c4ccc(C#N)c5nccnc45)C[C@@H](C)O3)CC2)n1 [Example 123, 8-[(2S,6R)-2-[[4-[4-(3-aminoazetidin-1-yl)-6-methyl-pyrimidin-2-yl]piperazin-1-yl]methyl]-6-methyl-morpholin-4-yl]quinoxaline-5-carbonitrile]

— US20210395239A1 (Hoffmann-La Roche Inc., priority 2018, published 2021)
